These results are taken from patent publication US11660338B2, “Particles comprising a shell with RNA” (BIONTECH SE, priority 2013, dated 2023).

Each structure is given as a SMILES string.

The assay relates to Vγ9Vδ2 T cells. The note with it: 7-day co-culture, 5 μM ZA, 10 U/mL IL-2; mean of two donors.

On to `O=P(O)(O)C(O)(Cn1ccnc1)P(=O)(O)O` [zoledronic acid], for which the “expansion rate of Vγ9δ2 T cells” value is “about 15 fold”.
